Assay results taken from patent publication US20230330060A1, “COMPOUNDS FOR TREATMENT OF HEART FAILURE” (Sulfateq B.V., priority 2020, published 2023).

Tests used:
[1] = tested on: H9C2 cardiomyocytes; experiment: Quantification of phenylephrine-induced EGFP synthesis as surrogate for cell size (hypertrophy); format: cell-based, rat
Protocol: Rat H9C2 cardiomyoblasts (ATCC CRL-1446) were maintained in DMEM medium containing 10% fetal bovine serum and 1% Penicillin-Streptomycin solution (Sigma-Aldrich) and passaged when the cultures reach a confluency of 70%. Prior to experiments, H9C2 myoblasts were differentiated to cardiomyocytes by serum reduction (to 1%) and stimulation with 20 nM retinoic acid for 5 days. Differentiated H9C2 cardiomyocytes were seeded at 0.6·10^5 cells/cm^2 for all experiments.
H9C2 cardiomyocytes (0.6·10^5 cells/cm2) were infected with CMV-copGPF (MOI 10) in culture medium without serum for 24 h. H9C2 cardiomyocytes were pre-incubated with 30 μM SUL compounds under standard culture conditions for 30 min and then stimulated with phenylephrine (dose range 2·10^−5 to 1·10^−11 M) for an additional period of 24 h. Thereafter H9C2 cardiomyocytes were lysed in 100 μl soft lysis buffer (25 mM Tris, 2 mM Dithiothreitol, 2 mM EDTA, 1% Triton X-100, pH 7.4). per well and fluorescence intensity of the obtained supernatant was recorded in a CLARIOStar Plus plate reader (BMG Labtech) equipped with a FITC filter set (excitation 488 nm with 10 nm bandwidth; emission 515 with a 20 nm bandwidth).
All experiments were performed in triplicate per condition and averaged. Data obtained from two individual experiments were used for evaluation in GraphPad Prism 8.0 (GraphPad Software Inc, Ca). Average H9C2 cardiomyocyte cell size was associated to average EGFP levels using linear regression. Phenylephrine-induced EGFP synthesis was normalized, using baseline levels as 0% and maximum EGFP recordings as 100%. All datasets were normalized to vehicle controls. 4 parameter non-linear regression was used to determine the efficacy of potency of phenylephrine to induce GFP synthesis. The efficacy of SUL compounds to inhibit phenylephrine-induced EGFP synthesis was calculated as 100%-Emax, wherein Emax is the maximal effect evoked by phenylephrine.

[2] = tested on: doxorubicin-induced heart failure; experiment: Cardiac radical scavenging activity (ABTS-radical decolorization); format: in vivo, rat; details: doxorubicin rats; prophylactic or therapeutic administration of SUL-150
Protocol: The SUL-150 solution was sprayed homogeneously over standard food pellets (1.25 kg). […] Food pellets were freshly prepared weekly. With the approximation of 200 mg·kg^−1 SUL-150 in the food pellets and a daily dietary intake of 25 gram for a 350 gram rat, daily dosing of SUL-150 approximates 5 mg·day^−1. Male outbred Wistar rats of 250-300 grams (10-12 weeks old) were kept on a 12 h light/dark cycle and received a standard diet with distilled water ad libitum. Thirty rats were administered with doxorubicin (2 mg·kg^−1) weekly via intraperitoneal injection for 9 consecutive weeks and were left either untreated (standard chow diet, 10 rats), or received a diet supplemented with SUL-150 as prophylaxis (prior to the 1st doxorubicin administration, 10 rats) or therapy (starting after the 6th doxorubicin administration, 10 rats). Sham control rats (8 rats) were administered with saline weekly via intraperitoneal injection for 9 consecutive weeks and received a standard diet. All rats were subjected to cardiac function assessment 12 weeks after the first doxorubicin administration. Cardiac tissue samples were homogenized in ddH2O using a TissueRuptor II (Qiagen, Hilden, Germany) followed by sonication at 20 kHz for 3×1 min (Sonopuls 2000, Bandelin, Berlin, Germany) and centrifugation at 14000 g to pellet insoluble proteins. […]

[3] = tested on: doxorubicin-induced heart failure; experiment: Cardiac mitochondrial (mtDNA) copy number; format: in vivo, rat; details: doxorubicin rats; administration of SUL-150
Protocol: SUL-150 (250 mg) was dissolved in 100% EtOH (1.02 ml) and further diluted in distilled water (68.7 ml) to obtain a clear 10 mM solution. The SUL-150 solution was sprayed homogeneously over standard food pellets (1.25 kg). Food pellets were air-dried overnight. Food pellets were freshly prepared weekly. With the approximation of 200 mg·kg^−1 SUL-150 in the food pellets and a daily dietary intake of 25 gram for a 350 gram rat, daily dosing of SUL-150 approximates 5 mg·day^−1.
Male outbred Wistar rats of 250-300 grams (10-12 weeks old) were kept on a 12 h light/dark cycle and received a standard diet with distilled water ad libitum. Thirty rats were administered with doxorubicin (2 mg·kg^−1) weekly via intraperitoneal injection for 9 consecutive weeks and were left either untreated (standard chow diet, 10 rats), or received a diet supplemented with SUL-150 as prophylaxis (prior to the 1st doxorubicin administration, 10 rats) or therapy (starting after the 6th doxorubicin administration, 10 rats). Sham control rats (8 rats) were administered with saline weekly via intraperitoneal injection for 9 consecutive weeks and received a standard diet. […]
Cardiac tissue samples were homogenized in lysis buffer (100 mM NaCl, 10 mM EDTA, 0.5% SDS in 20 mM Tris-HCl, pH 7.4) containing 50 U·ml^−1 RNase I and 100 U·ml^−1 proteinase K (both ThermoFisher, Walthham, MA). […] MtDNA copy number was calculated as: […]

[4] = tested on: mitochondrial complex IV (cytochrome c oxidase); experiment: Respiratory complex IV activity in mitochondria isolated from H9C2 cardiomyoblasts; format: cell-based, rat
Protocol: H9C2 cardiomyoblasts were exposed to 1 μM DOX in the presence or absence of 1 μM SUL-150 under standard cell culture conditions for 24 h. Mitochondria were isolated using density gradient centrifugation using the MitoCheck® Mitochondrial Isolation Kit (Cayman Chemical #701010, Ann Arbor, MI) according to manufacturer's instructions and assessed for the activity of mitochondrial complex IV (cytochrome c oxidase) by measuring the rate of oxidation of cytochrome c, which is reflected by an […] in absorbance at 550 nm (Cayman Chemical #700990, Ann Arbor, MI).

## Cc1c(C)c2c(c(C)c1O)CC[C@](C)(C(=O)N1CCNCC1)O2 [SUL-150, (R)-(6-hydroxy-2,5,7,8-tetramethylchroman-2-yl)(piperazin-1-yl)methanone]
[1]; 30 μM SUL compound, calculated as 100%-Emax
  SUL EGFP Inhibition (%): 66.49%
[1]; preincubation with 30 μM compound
  Expression of EGFP induced by phenylephrine (FIG. 3): reduced the expression of EGFP
[2]
  Cardiac radical scavenging activity, FIG. 5B: remained unaltered
[3]
  Doxorubicin-induced reduction of cardiac mtDNA copy number, FIG. 6B: precluded
[4]; H9C2 cardiomyoblasts co-incubated with doxorubicin and SUL-150, both 1 μM for 24 h
  Respiratory complex IV activity, FIG. 7: maintains complex IV activity
[4]; untreated control H9C2 cardiomyoblasts, SUL-150 1 μM for 24 h
  Respiratory complex IV activity: does not alter the activity of respiratory complex IV
